Measurements: patent US20120142705A1, “ISATIN AND OXINDOLE COMPOUNDS” (priority 2010, published 2012)

Each molecule was assayed against T1, Recombinant human liver GK1 (GST-GK) (Homo sapiens, UniProt P35557) (assay: In vitro glucokinase activity, G6PDH-coupled spectrophotometric assay). Conditions: 5 mM D-glucose, 30° C., pH 7.1.
T1 construct: made in house; host or cells: E. coli
T1 sequence (P35557 1-466 isoform P35557-2): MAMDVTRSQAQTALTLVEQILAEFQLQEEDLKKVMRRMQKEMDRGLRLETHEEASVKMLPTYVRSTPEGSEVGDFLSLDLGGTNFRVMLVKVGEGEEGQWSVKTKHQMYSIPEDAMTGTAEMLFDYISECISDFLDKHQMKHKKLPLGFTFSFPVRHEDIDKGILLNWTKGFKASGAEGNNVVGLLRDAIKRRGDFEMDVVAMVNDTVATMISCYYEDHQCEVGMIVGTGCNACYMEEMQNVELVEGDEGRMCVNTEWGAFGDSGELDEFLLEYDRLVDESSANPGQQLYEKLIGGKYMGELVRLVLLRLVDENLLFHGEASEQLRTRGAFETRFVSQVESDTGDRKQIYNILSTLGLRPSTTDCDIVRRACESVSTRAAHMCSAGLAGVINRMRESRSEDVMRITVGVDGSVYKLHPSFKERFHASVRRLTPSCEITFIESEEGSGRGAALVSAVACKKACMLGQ
Type: biochemical
Protocol: Glucokinase In Vitro Assay Protocol: Glucokinase (GK) was assayed by coupling the production of glucose-6-phosphate to the generation of NADH with glucose-6-phosphate dehydrogenase (G6PDH, 0.75-1 kunits/mg; Boehringer Mannheim, Indianapolis, Ind.) from Leuconostoc mesenteroides as the coupling enzyme (Scheme 2).
Recombinant human liver GK1 was expressed in E. coli as a glutathione S-transferase fusion protein (GST-GK) [Liang et al, 1995] and was purified by chromatography over a glutathione-Sepharose 4B affinity column using the procedure provided by the manufacturer (Amersham Pharmacia Biotech, Piscataway, N.J.).
The assay was conducted at 30° C. in a flat bottom 96-well tissue culture plate from Costar (Cambridge, Mass.) with a final incubation volume of 120 μL. The incubation reaction contained the following: 25 mM Hepes buffer (pH 7.1), 25 mM KCl, 5 mM D-glucose, 1 mM ATP, 1.8 mM NAD, 2 mM MgCl2, 1 μM sorbitol-6-phosphate, 1 mM dithiothreitol, test drug or 10% dimethylsulfoxide, ˜7 units/ml G6PDH, and GK (see below). All organic reagents were >98% pure and were from Boehringer Mannheim with the exceptions of D-glucose and Hepes which were from Sigma Chemical Co, St Louis, Mo. Test compounds were dissolved in dimethylsulfoxide and were added to the incubation reaction minus GST-GK in a volume of 12 μL to yield a final dimethylsulfoxide concentration of 10%. This mix was pre-incubated in the temperature controlled chamber of a SPECTRAmax 250 microplate spectrophotometer (Molecular Devices Corporation, Sunnyvale, Calif.) for 10 minutes to allow temperature equilibrium and then the reaction was started by the addition of 20 μL GST-GK.
After addition of enzyme, the increase in optical density (OD) at 340 nm was monitored spectrophotometrically to determine the rate of change (OD340 per min). The GK activity (OD340/min) in control wells (10% dimethylsulfoxide minus GK activators) was compared with the activity in wells containing test GK activators, and the concentration of activator that produced a 50% increase in the activity of GK, i.e., the SC1.5, was calculated.

Going from COc1ccc2c(c1)CC(=O)N2C(CC1CCCC1)C(=O)Nc1nccs1 (stereo not drawn) [Example 51, 3-Cyclopentyl-2-(5-methoxy-2-oxo-2,3-dihydro-indol-1-yl)-N-thiazol-2-yl-propionamide] to O=C(Nc1nccs1)C(CC1CCCC1)N1C(=O)Cc2cc(Br)ccc21 (stereo not drawn) [Example 66, 2-(5-Bromo-2-oxo-2,3-dihydro-indol-1-yl)-3-cyclopentyl-N-thiazol-2-yl-propionamide], the “SC1.5 (concentration of activator that produced a 50% increase in the activity of GK)” value falls from 3.6 µM to 1.69 µM (2.1-fold).

Compared with COc1ccc2c(c1)CC(=O)N2C(CC1CCCC1)C(=O)Nc1cnccn1 (stereo not drawn) [Example 52, 3-Cyclopentyl-2-(5-methoxy-2-oxo-2,3-dihydro-indol-1-yl)-N-pyrazin-2-yl-propionamide], O=C(Nc1cnccn1)C(CC1CCCC1)N1C(=O)Cc2cc(Br)ccc21 (stereo not drawn) [Example 67, 2-(5-Bromo-2-oxo-2,3-dihydro-indol-1-yl)-3-cyclopentyl-N-pyrazin-2-yl-propionamide] is 3.7-fold lower in “SC1.5 (concentration of activator that produced a 50% increase in the activity of GK)” value: 4.76 µM for the first, 1.28 µM for the second.

Going from COc1ccc2c(c1)CC(=O)N2C(CC(C)C)C(=O)Nc1nccs1 (stereo not drawn) [Example 56, 2-(5-Methoxy-2-oxo-2,3-dihydro-indol-1-yl)-4-methyl-pentanoic acid thiazol-2-ylamide] to CC(C)CC(C(=O)Nc1nccs1)N1C(=O)Cc2cc(Br)ccc21 (stereo not drawn) [Example 72, 2-(5-Bromo-2-oxo-2,3-dihydro-indol-1-yl)-4-methyl-pentanoic acid thiazol-2-ylamide], the “SC1.5 (concentration of activator that produced a 50% increase in the activity of GK)” value falls from 22.75 µM to 5.82 µM (3.9-fold).

Going from COc1ccc2c(c1)CC(=O)N2C(CC(C)C)C(=O)Nc1ccccn1 (stereo not drawn) [Example 57, 2-(5-Methoxy-2-oxo-2,3-dihydro-indol-1-yl)-4-methyl-pentanoic acid pyridin-2-ylamide] to CC(C)CC(C(=O)Nc1ccccn1)N1C(=O)Cc2cc(Br)ccc21 (stereo not drawn) [Example 74, 2-(5-Bromo-2-oxo-2,3-dihydro-indol-1-yl)-4-methyl-pentanoic acid pyridin-2-ylamide], the “SC1.5 (concentration of activator that produced a 50% increase in the activity of GK)” value falls from 13.89 µM to 3.24 µM (4.3-fold).

CC(C)(O)Cn1ccc(NC(=O)C(CC2CCCC2)N2C(=O)Cc3ccccc32)n1 (stereo not drawn) [Example 59, 3-Cyclopentyl-N-[1-(2-hydroxy-2-methyl-propyl)-1H-pyrazol-3-yl]-2-(2-oxo-2,3-dihydro-indol-1-yl)-propionamide] and Cn1ccc(NC(=O)C(CC2CCCC2)N2C(=O)Cc3cc(Br)ccc32)n1 (stereo not drawn) [Example 65, 2-(5-Bromo-2-oxo-2,3-dihydro-indol-1-yl)-3-cyclopentyl-N-(1-methyl-1H-pyrazol-3-yl)-propionamide] are within 1.5-fold of each other in “SC1.5 (concentration of activator that produced a 50% increase in the activity of GK)” value: 3.87 µM for the first, 2.71 µM for the second.

Going from O=C1C(=O)N(C(CC2CCCC2)C(=O)Nc2cnccn2)c2ccc(Br)cc21 (stereo not drawn) [Example 60, 2-(5-Bromo-2,3-dioxo-2,3-dihydro-indol-1-yl)-3-cyclopentyl-N-pyrazin-2-yl-propionamide] to Cc1ccc2c(c1)C(=O)C(=O)N2C(CC1CCCC1)C(=O)Nc1cnccn1 (stereo not drawn) [Example 76, 3-Cyclopentyl-2-(5-methyl-2,3-dioxo-2,3-dihydro-indol-1-yl)-N-pyrazin-2-yl-propionamide], the “SC1.5 (concentration of activator that produced a 50% increase in the activity of GK)” value rises from 5.48 µM to 22.77 µM (4.2-fold).

First: O=C1C(=O)N(C(CC2CCCC2)C(=O)Nc2ccccn2)c2ccc(Br)cc21 (stereo not drawn) [Example 61, 2-(5-Bromo-2,3-dioxo-2,3-dihydro-indol-1-yl)-3-cyclopentyl-N-pyridin-2-yl-propionamide]
Second: Cc1ccc2c(c1)C(=O)C(=O)N2C(CC1CCCC1)C(=O)Nc1ccccn1 (stereo not drawn) [Example 77, 3-Cyclopentyl-2-(5-methyl-2,3-dioxo-2,3-dihydro-indol-1-yl)-N-pyridin-2-yl-propionamide]
The “SC1.5 (concentration of activator that produced a 50% increase in the activity of GK)” value of the first is 7-fold lower: 0.95 µM for the first, 6.67 µM for the second.

First: Cn1ccc(NC(=O)C(CC2CCCC2)N2C(=O)C(=O)c3cc(Br)ccc32)n1 (stereo not drawn) [Example 62, 2-(5-Bromo-2,3-dioxo-2,3-dihydro-indol-1-yl)-3-cyclopentyl-N-(1-methyl-1H-pyrazol-3-yl)-propionamide]
Second: O=C1C(=O)N(C(CC2CCCC2)C(=O)Nc2nccs2)c2ccc(Br)cc21 (stereo not drawn) [Example 63, 2-(5-Bromo-2,3-dioxo-2,3-dihydro-indol-1-yl)-3-cyclopentyl-N-thiazol-2-yl-propionamide]
The “SC1.5 (concentration of activator that produced a 50% increase in the activity of GK)” value of the first is 2.8-fold higher: 6.18 µM for the first, 2.18 µM for the second.

Compared with O=C(Nc1ccccn1)C(CC1CCCC1)N1C(=O)Cc2cc(Br)ccc21 (stereo not drawn) [Example 64, 2-(5-Bromo-2-oxo-2,3-dihydro-indol-1-yl)-3-cyclopentyl-N-pyridin-2-yl-propionamide], CC(C)CC(C(=O)Nc1cnccn1)N1C(=O)Cc2cc(Br)ccc21 (stereo not drawn) [Example 75, 2-(5-Bromo-2-oxo-2,3-dihydro-indol-1-yl)-4-methyl-pentanoic acid pyrazin-2-ylamide] is 24-fold higher in “SC1.5 (concentration of activator that produced a 50% increase in the activity of GK)” value: 0.48 µM for the first, 11.4 µM for the second.

Going from CC(C)CC(C(=O)Nc1ccccn1)N1C(=O)C(=O)c2cc(Br)ccc21 (stereo not drawn) [Example 69, 2-(5-Bromo-2,3-dioxo-2,3-dihydro-indol-1-yl)-4-methyl-pentanoic acid pyridin-2-ylamide] to CC(C)CC(C(=O)Nc1ccn(C)n1)N1C(=O)Cc2cc(Br)ccc21 (stereo not drawn) [Example 73, 2-(5-Bromo-2-oxo-2,3-dihydro-indol-1-yl)-4-methyl-pentanoic acid (1-methyl-1H-pyrazol-3-yl)-amide], the “SC1.5 (concentration of activator that produced a 50% increase in the activity of GK)” value rises from 7.43 µM to 17.96 µM (2.4-fold).

Same assay, conditions: @ 30 uM; 5 mM D-glucose, 30° C.

Compared with COc1ccc2c(c1)C(=O)C(=O)N2C(CC(C)C)C(=O)Nc1cnccn1 (stereo not drawn) [Example 53, 2-(5-Methoxy-2,3-dioxo-2,3-dihydro-indol-1-yl)-4-methyl-pentanoic acid pyrazin-2-ylamide], CC(C)CC(C(=O)Nc1cnccn1)N1C(=O)C(=O)c2cc(Br)ccc21 (stereo not drawn) [Example 68, 2-(5-Bromo-2,3-dioxo-2,3-dihydro-indol-1-yl)-4-methyl-pentanoic acid pyrazin-2-ylamide] is higher in fold induction at 30 µM: 1.16 for the first, 1.32 for the second.

First: COc1ccc2c(c1)C(=O)C(=O)N2C(CC(C)C)C(=O)Nc1ccccn1 (stereo not drawn) [Example 54, 2-(5-Methoxy-2,3-dioxo-2,3-dihydro-indol-1-yl)-4-methyl-pentanoic acid pyridin-2-ylamide]
Second: COc1ccc2c(c1)C(=O)C(=O)N2C(CC(C)C)C(=O)Nc1nccs1 (stereo not drawn) [Example 55, 2-(5-Methoxy-2,3-dioxo-2,3-dihydro-indol-1-yl)-4-methyl-pentanoic acid thiazol-2-ylamide]
The fold induction at 30 µM of the first is higher: 1.49 for the first, 1.39 for the second.

First: COc1ccc2c(c1)CC(=O)N2C(CC(C)C)C(=O)Nc1cnccn1 (stereo not drawn) [Example 58, 2-(5-Methoxy-2-oxo-2,3-dihydro-indol-1-yl)-4-methyl-pentanoic acid pyrazin-2-ylamide]
Second: CC(C)CC(C(=O)Nc1ccn(C)n1)N1C(=O)C(=O)c2cc(Br)ccc21 (stereo not drawn) [Example 70, 2-(5-Bromo-2,3-dioxo-2,3-dihydro-indol-1-yl)-4-methyl-pentanoic acid (1-methyl-1H-pyrazol-3-yl)-amide]
The fold induction at 30 µM of the first is lower: 1.31 for the first, 1.32 for the second.

For CC(C)CC(C(=O)Nc1nccs1)N1C(=O)C(=O)c2cc(Br)ccc21 (stereo not drawn) [Example 71, 2-(5-Bromo-2,3-dioxo-2,3-dihydro-indol-1-yl)-4-methyl-pentanoic acid thiazol-2-ylamide], the fold induction at 30 µM was 1.5.
